Measured values reported in patent US20250223277A1, “COMPLEMENT FACTOR B INHIBITORS AND USES THEREOF” (Novartis AG, priority 2022, published 2025).

These compounds were tested against Recombinant human factor B (Homo sapiens (Human), UniProt P00751) (assay: Human Complement Factor B TR-FRET Assay). Conditions: assay of Biological Example 2; read-out: hFactor-B TR-FRET Qualified IC50.
Assay type: binding
Protocol: The time-gated decrease in fluorescence intensity related to the competition between labeled and unlabeled factor B ligands was recorded at both 620 nm and 665 nm, 70 us after excitation at 337 nm using a microplate spectrofluorimeter.

Sequence of Recombinant human factor B (P00751 26-764): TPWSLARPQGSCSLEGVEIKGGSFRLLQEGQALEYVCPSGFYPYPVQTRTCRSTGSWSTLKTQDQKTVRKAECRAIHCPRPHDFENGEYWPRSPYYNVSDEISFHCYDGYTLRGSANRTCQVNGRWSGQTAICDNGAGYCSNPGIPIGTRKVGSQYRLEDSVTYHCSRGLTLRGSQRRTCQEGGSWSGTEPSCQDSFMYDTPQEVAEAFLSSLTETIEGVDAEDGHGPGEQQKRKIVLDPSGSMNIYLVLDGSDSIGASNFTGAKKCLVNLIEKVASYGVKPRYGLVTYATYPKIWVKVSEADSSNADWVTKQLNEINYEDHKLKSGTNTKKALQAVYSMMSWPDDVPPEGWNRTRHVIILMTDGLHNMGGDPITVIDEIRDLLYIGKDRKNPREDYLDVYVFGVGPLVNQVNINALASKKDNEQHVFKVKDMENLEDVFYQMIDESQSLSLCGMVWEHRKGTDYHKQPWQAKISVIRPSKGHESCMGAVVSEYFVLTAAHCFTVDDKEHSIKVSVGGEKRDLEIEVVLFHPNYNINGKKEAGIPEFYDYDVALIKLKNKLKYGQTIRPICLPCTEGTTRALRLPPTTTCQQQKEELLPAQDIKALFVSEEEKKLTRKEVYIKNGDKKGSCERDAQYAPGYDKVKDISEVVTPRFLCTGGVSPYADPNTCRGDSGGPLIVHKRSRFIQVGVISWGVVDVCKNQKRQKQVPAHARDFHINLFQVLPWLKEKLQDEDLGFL

`Cc1cc(C)c2[nH]ccc2c1C[C@@H]1CCN(C2COC2)C[C@H]1c1ccc(-n2cccn2)cc1` [Ex-50, 4-(((3R,4R)-3-(4-(1H-pyrazol-1-yl)phenyl)-1-(oxetan-3-yl)piperidin-4-yl)methyl)-5,7-dimethyl-1H-indole] and `Cc1cc(C)c2[nH]ccc2c1C[C@@H]1CCN(C)C[C@H]1c1ccc(-n2cccn2)cc1` [Ex-46, 4-(((3R,4R)-3-(4-(1H-pyrazol-1-yl)phenyl)-1-methylpiperidin-4-yl)methyl)-5,7-dimethyl-1H-indole] cannot be ordered by IC50: < 1 µM for the first, < 0.1 µM for the second.

`Cc1cc(C)c2[nH]ccc2c1C[C@@H]1CN(C)C[C@H]1c1ccc(C(N)=O)cc1` (racemic) [Ex-58, Racemic 4-((3R*,4S*)-4-((5,7-dimethyl-1H-indol-4-yl)methyl)-1-methylpyrrolidin-3-yl)benzamide] and `Cc1cc(C)c2[nH]ccc2c1C[C@H]1CCN(C)C[C@@H]1c1ccc(C(=O)O)cc1` [Ex-9] cannot be ordered by IC50: < 30 µM for the first, < 30 µM for the second.

`CCN1CC[C@@H](Cc2c(C)cc(C)c3[nH]ccc23)[C@H](c2ccc(C(=O)O)cc2)C1` [Ex-10, 4-((3R,4R)-4-((5,7-dimethyl-1H-indol-4-yl)methyl)-1-ethylpiperidin-3-yl)benzoic acid] and `Cc1cc(C)c2[nH]ccc2c1C[C@@H]1CCN(CCF)C[C@H]1c1ccc(C(=O)O)cc1` [Ex-12, 4-((3R,4R)-4-((5,7-dimethyl-1H-indol-4-yl)methyl)-1-(2-fluoroethyl)piperidin-3-yl)benzoic acid] cannot be ordered by IC50: < 0.1 µM for the first, < 0.1 µM for the second.

`Cc1cc(C)c2[nH]ccc2c1C[C@@H]1CCN(C2COC2)C[C@H]1c1ccc(C(=O)O)cc1` [Ex-21, 4-((3R,4R)-4-((5,7-dimethyl-1H-indol-4-yl)methyl)-1-(oxetan-3-yl)piperidin-3-yl)benzoic acid] and `Cc1cc(C)c2[nH]ccc2c1C[C@@H]1CCN([C@H]2C[C@H](F)C2)C[C@H]1c1ccc(C(=O)O)cc1` [Ex-22, 4-((3R,4R)-4-((5,7-dimethyl-1H-indol-4-yl)methyl)-1-((1r,3R)-3-fluorocyclobutyl)piperidin-3-yl)benzoic acid] cannot be ordered by IC50: < 1 µM for the first, < 0.1 µM for the second.

`Cc1cc(F)c(C[C@@H]2CCN(C)C[C@H]2c2ccc(C(=O)O)cc2)c2cc[nH]c12` [Ex-35, 4-((3R,4R)-4-((5-fluoro-7-methyl-1H-indol-4-yl)methyl)-1-methylpiperidin-3-yl)benzoic acid] and `Cc1cc(Cl)c(C[C@@H]2CCN(C)C[C@H]2c2ccc(C(=O)O)cc2)c2cc[nH]c12` [Ex-36, 4-((3R,4R)-4-((5-chloro-7-methyl-1H-indol-4-yl)methyl)-1-methylpiperidin-3-yl)benzoic acid] cannot be ordered by IC50: < 0.1 µM for the first, < 0.1 µM for the second.

`Cc1cc(C)c2[nH]ccc2c1C[C@@H]1CCN(CCC(F)F)C[C@H]1c1ccc(C(=O)O)cc1` [Ex-23, 4-((3R,4R)-1-(3,3-difluoropropyl)-4-((5,7-dimethyl-1H-indol-4-yl)methyl)piperidin-3-yl)benzoic acid] and `Cc1cc(C)c2[nH]ccc2c1C[C@@H]1CCN(CCC(F)F)CC[C@H]1c1ccc(C(=O)O)cc1` [Ex-32, 4-((4R,5R)-1-(3,3-difluoropropyl)-5-((5,7-dimethyl-1H-indol-4-yl)methyl)azepan-4-yl)benzoic acid] cannot be ordered by IC50: < 0.1 µM for the first, < 1 µM for the second.

`Cc1cc(C)c2[nH]ccc2c1C[C@@H]1CN(CC(F)(F)F)C[C@H]1c1ccc(C(=O)O)cc1` (racemic) [Ex-26, 4-(4-((5,7-dimethyl-1H-indol-4-yl)methyl)-1-(2,2,2-trifluoroethyl)pyrrolidin-3-yl)benzoic acid] and `Cc1cc(C)c2[nH]ccc2c1C[C@H]1CCN(CC(F)(F)F)C[C@@H]1c1ccc(C(=O)O)cc1` [Ex-2, 4-((3S,4S)-4-((5,7-dimethyl-1H-indol-4-yl)methyl)-1-(2,2,2-trifluoro-ethyl)piperidin-3-yl)benzoic acid] cannot be ordered by IC50: < 30 µM for the first, < 30 µM for the second.

`Cc1cc(C)c2[nH]ccc2c1C[C@@H]1CCN(CC(C)(C)O)C[C@H]1c1ccc(C(=O)O)cc1` [Ex-15, 4-((3R,4R)-4-((5,7-dimethyl-1H-indol-4-yl)methyl)-1-(2-hydroxy-2-methylpropyl)piperidin-3-yl)benzoic acid] and `COCCN1CC[C@@H](Cc2c(C)cc(C)c3[nH]ccc23)[C@H](c2ccc(C(=O)O)cc2)C1` [Ex-14, 4-((3R,4R)-4-((5,7-dimethyl-1H-indol-4-yl)methyl)-1-(2-methoxyethyl)piperidin-3-yl)benzoic acid] cannot be ordered by IC50: < 1 µM for the first, < 0.1 µM for the second.

`CN1CC[C@@H](Cc2c(Cl)cc(Cl)c3[nH]ccc23)[C@H](c2ccc(C(=O)O)cc2)C1` [Ex-37, 4-((3R,4R)-4-((5,7-dichloro-1H-indol-4-yl)methyl)-1-methylpiperidin-3-yl)benzoic acid] and `Cc1cc(Cl)c2[nH]ccc2c1C[C@@H]1CCN(C)C[C@H]1c1ccc(C(=O)O)cc1` [Ex-38, 4-((3R,4R)-4-((7-chloro-5-methyl-1H-indol-4-yl)methyl)-1-methylpiperidin-3-yl)benzoic acid] cannot be ordered by IC50: < 0.1 µM for the first, < 0.1 µM for the second.

`Cc1ccc(C[C@@H]2CCN(C)C[C@H]2c2ccc(C(=O)O)cc2)c2cc[nH]c12` [Ex-33, 4-((3R,4R)-1-methyl-4-((7-methyl-1H-indol-4-yl)methyl)piperidin-3-yl)benzoic acid] and `Cc1cc(C)c2[nH]ccc2c1C[C@@H]1CCN(C)C[C@H]1c1ccc(C(=O)O)cc1` [Ex-8, 4-((3R,4R)-4-((5,7-dimethyl-1H-indol-4-yl)methyl)-1-methylpiperidin-3-yl)benzoic acid] cannot be ordered by IC50: < 0.1 µM for the first, < 0.1 µM for the second.

`COc1cc(C)c2[nH]ccc2c1C[C@@H]1CCN(CC(F)(F)F)C[C@H]1c1ccc(C(=O)O)cc1` [Ex-5, 4-((3R,4R)-4-((5-methoxy-7-methyl-1H-indol-4-yl)methyl)-1-(2,2,2-trifluoroethyl)piperidin-3-yl)benzoic acid] and `COc1cc(C)c2[nH]ccc2c1C[C@H]1CCN(CC(F)(F)F)C[C@@H]1c1ccc(C(=O)O)cc1` [Ex-6] cannot be ordered by IC50: < 1 µM for the first, < 30 µM for the second.

`Cc1cc(C)c2[nH]cc(Cl)c2c1C[C@@H]1CCN(C)C[C@H]1c1ccc(C(=O)O)cc1` [Ex-39, 4-((3R,4R)-4-((3-chloro-5,7-dimethyl-1H-indol-4-yl)methyl)-1-methylpiperidin-3-yl)benzoic acid] and `Cc1cc(C)c2[nH]ccc2c1C[C@@H]1CCCN(C)C[C@H]1c1ccc(C(=O)O)cc1` [Ex-27, 4-((3R,4S)-4-((5,7-dimethyl-1H-indol-4-yl)methyl)-1-methylazepan-3-yl)benzoic acid] cannot be ordered by IC50: < 0.1 µM for the first, < 0.1 µM for the second.

`Cc1cc(C2CC2)c(C[C@@H]2CCN(CC(F)(F)F)C[C@H]2c2ccc(C(=O)O)cc2)c2cc[nH]c12` [Ex-3, 4-((3R,4R)-4-((5-cyclopropyl-7-methyl-1H-indol-4-yl)methyl)-1-(2,2,2-trifluoroethyl)piperidin-3-yl)benzoic acid] and `Cc1cc(C2CC2)c(C[C@H]2CCN(CC(F)(F)F)C[C@@H]2c2ccc(C(=O)O)cc2)c2cc[nH]c12` [Ex-4] cannot be ordered by IC50: < 0.1 µM for the first, < 30 µM for the second.

`Cc1cc(C)c2[nH]ccc2c1C[C@@H]1CCN(CC(F)(F)F)C[C@H]1c1ccc(-n2cccn2)cc1` [Ex-47, 4-(((3R,4R)-3-(4-(1H-pyrazol-1-yl)phenyl)-1-(2,2,2-trifluoroethyl)piperidin-4-yl)methyl)-5,7-dimethyl-1H-indole] and `Cc1cc(C)c2[nH]ccc2c1C[C@@H]1CCN(CCC(F)F)C[C@H]1c1ccc(-n2cccn2)cc1` [Ex-48, 4-(((3R,4R)-3-(4-(1H-pyrazol-1-yl)phenyl)-1-(3,3-difluoropropyl)piperidin-4-yl)methyl)-5,7-dimethyl-1H-indole] cannot be ordered by IC50: < 1 µM for the first, < 0.1 µM for the second.

`Cc1cc(C)c2[nH]ccc2c1C[C@@H]1CCN(C)C[C@H]1c1ccc(C#N)cc1` [Ex-44, 4-((3R,4R)-4-((5,7-dimethyl-1H-indol-4-yl)methyl)-1-methylpiperidin-3-yl)benzonitrile] and `Cc1cc(C)c2[nH]ccc2c1C[C@@H]1CCN(CC(F)(F)F)C[C@H]1c1ccc(C#N)cc1` [Ex-45, 4-((3R,4R)-4-((5,7-dimethyl-1H-indol-4-yl)methyl)-1-(2,2,2-trifluoroethyl)piperidin-3-yl)benzonitrile] cannot be ordered by IC50: < 1 µM for the first, < 30 µM for the second.

`Cc1cc(C)c2[nH]ccc2c1C[C@@H]1CCN(CC2(F)COC2)C[C@H]1c1ccc(-n2cccn2)cc1` [Ex-49, 4-(((3R,4R)-3-(4-(1H-pyrazol-1-yl)phenyl)-1-((3-fluorooxetan-3-yl)methyl)piperidin-4-yl)methyl)-5,7-dimethyl-1H-indole] and `Cc1cc(C)c2[nH]ccc2c1C[C@@H]1CCN(CC2(F)COC2)C[C@H]1c1ccc(C(=O)O)cc1` [Ex-17, 4-((3R,4R)-4-((5,7-dimethyl-1H-indol-4-yl)methyl)-1-((3-fluorooxetan-3-yl)methyl)piperidin-3-yl)benzoic acid] cannot be ordered by IC50: < 0.1 µM for the first, < 0.1 µM for the second.

`Cc1cc(C)c2[nH]ccc2c1C[C@@H]1CCN(C)CC[C@H]1c1ccc(C(=O)O)cc1` [Ex-30, 4-((4R,5R)-5-((5,7-dimethyl-1H-indol-4-yl)methyl)-1-methylazepan-4-yl)benzoic acid] and `Cc1cc(C2CC2)c(C[C@@H]2CN(C)C[C@H]2c2ccc(C(=O)O)cc2)c2cc[nH]c12` [Ex-59, 4-((3R,4S)-4-((5-cyclopropyl-7-methyl-1H-indol-4-yl)methyl)-1-methylpyrrolidin-3-yl)benzoic acid] cannot be ordered by IC50: < 0.1 µM for the first, < 0.1 µM for the second.

`Cc1cc(C)c2[nH]ccc2c1C[C@@H]1CCN(C)C[C@H]1c1ccc(-c2nnn[nH]2)cc1` [Ex-42, 4-(((3R,4R)-3-(4-(1H-tetrazol-5-yl)phenyl)-1-methylpiperidin-4-yl)methyl)-5,7-dimethyl-1H-indole] and `Cc1cc(C)c2[nH]ccc2c1C[C@@H]1CN(C)C[C@H]1c1ccc(-c2nnn[nH]2)cc1` [Ex-60, 4-(((3S,4R)-4-(4-(2H-tetrazol-5-yl)phenyl)-1-methylpyrrolidin-3-yl)methyl)-5,7-dimethyl-1H-indole] cannot be ordered by IC50: < 0.1 µM for the first, < 0.1 µM for the second.

With `CCN1C[C@@H](Cc2c(C3CC3)cc(C)c3[nH]ccc23)[C@H](c2ccc(-c3nnn[nH]3)cc2)C1` (racemic) [Ex-61, 4-((4-(4-(1H-tetrazol-5-yl)phenyl)-1-ethylpyrrolidin-3-yl)methyl)-5-cyclopropyl-7-methyl-1H-indole] the IC50 was < 0.1 µM.
